Measurements as given in BindingDB's records for doi:10.1016/j.ejmech.2016.05.049 (University of Naples Federico Ii, 2016).
Residues, ends and D or L forms follow the SMILES beside them. *: point of attachment. Cbz = O=C(OCc1ccccc1)*

Test: Competitive inhibition of post-glutamyl peptide hydrolyzing activity of human 20S proteasome using Cbz-Leu-Leu-Glu-AMC as substrate measured for 10 mins by fluorescence assay

Ki | Structure (SMILES)
31.3 µM | COC(=O)[C@H](Cc1ccc(O)cc1)NC(=O)[C@H](CC(C)C)NC(=O)[C@H](CO)NC(=O)OCc1ccccc1 (Cbz-Ser-Leu-Tyr-OMe)
8.59 µM | CC(C)CC(NC(=O)C(CO)NC(=O)OCc1ccccc1)C(=O)NC(Cc1ccc(O)cc1)C(N)=O (stereo not drawn) (Cbz-Ser-Leu-Tyr-NH2; configuration not given here)
